Test results from patent publication US9708314B2, “Heterocyclic amide compound” (NISSAN CHEMICAL INDUSTRIES, LTD., priority 2013, dated 2017).

How the values were obtained:
Format in all cases: in vivo
Zea mays = experiment: Test Example 4: effect on crop by application to foliage (diluvial soil, plastic box); conditions: Application herbicide amount 320 g/ha; effect on crop
Description: (§1) 5 Herbicidal ratio of 90% or more (almost completely withered) 4 Herbicidal ratio of 70% or more and less than 90% 3 Herbicidal ratio of 40% or more and less than 70% 2 Herbicidal ratio of 20% or more and less than 40% 1 Herbicidal ratio of 5% or more and less than 20% 0 Herbicidal ratio of 5% or less (almost no effect) [Test Example 4] Herbicidal Effect Test by Application to Foliage Sterilized diluvial soil was placed in a plastic box having a length of 21 cm, a width of 13 cm, and a depth of 7 cm. Each of the seeds of Digitaria ciliaris, Setaria viridis, Echinochloa crus-galli var. crus-galli, Avena fatua, Alopecurus myosuroides, Lolium multiflorum Lam., Apera spica-venti., Abutilon theophrasti, Amaranthus retroflexus, Chenopodium album, Stellaria media, Galium spurium, Veronica persica, Zea mays, Glycine max, Oryza sativa, Triticum aestivum, Beta vulgaris ssp. vulgaris, and Brassica campestris L. was sowed in a spot-like manner and was covered with the soil of about 1.5 cm thick. Thereafter, the plants were grown in the greenhouse of 25° C. to 30° C. After the plants were grown for 14 days, the emulsion agent containing the compound of the present invention prepared in accordance with Formulation Example 2 was diluted with water so as to be a predetermined herbicide amount and the diluted compound was uniformly applied to a stem and leaf part with a small-size spray. Three weeks after the herbicide application, effects on each plant were investigated in accordance with the criteria of Test Example 1. A: Echinochloa oryzicola Vasing., B: Scirpus juncoides, C: Monochoria vaginalis, D: Leptochloa chinensis, E: Cyperus difformis, F: Digitaria ciliaris, G: Setaria viridis, H: Echinochloa crus-galli var. crus-galli, I: Avena fatua, J: Alopecurus myosuroides, K: Lolium multiflorum Lam., L: Apera spica-venti., M: Abutilon theophrasti, N: Amaranthus retroflexus, O: Chenopodium album, P: Stellaria media, Q: Galium spurium, R: Veronica persica, a: transplanted Oryza sativa, b: directly sowed Oryza sativa, c: Zea mays, d: Glycine max, e: Triticum aestivum, f: Beta vulgaris ssp. vulgaris, and g: Brassica campestris L. The application herbicide amount (g/ha) means an amount that a concentration is adjusted so that, when an application amount is converted into per hectare (1 ha), the herbicide is applied by the number of grams (g) of the described value.

Brassica campestris L. = experiment: as above; conditions: Application herbicide amount 320 g/ha; effect on crop
Description: as §1

[1] = tested on: Beta vulgaris ssp. vulgaris; experiment: as above; conditions: Application herbicide amount 320 g/ha; effect on crop
Description: as §1

[2] = tested on: directly sowed Oryza sativa; experiment: as above; conditions: Application herbicide amount 320 g/ha; effect on crop
Description: as §1

Glycine max = experiment: as above; conditions: Application herbicide amount 320 g/ha; effect on crop
Description: as §1

Triticum aestivum = experiment: as above; conditions: Application herbicide amount 320 g/ha; effect on crop
Description: as §1

Leptochloa chinensis = experiment: Test Example 3: herbicidal effect by application to foliage (Wagner pot, water depth 0.1-0.5 cm); conditions: Nineteenth Table; application to foliage; application herbicide amount 320 g/ha
Description: (§2) 5 Herbicidal ratio of 90% or more (almost completely withered) 4 Herbicidal ratio of 70% or more and less than 90% 3 Herbicidal ratio of 40% or more and less than 70% 2 Herbicidal ratio of 20% or more and less than 40% 1 Herbicidal ratio of 5% or more and less than 20% 0 Herbicidal ratio of 5% or less (almost no effect) [Test Example 3] Herbicidal Effect Test by Application to Foliage After alluvial soil was placed into 1/10000 are of Wagner pot, water was poured and mixed to form a condition having a water depth of 0.1 cm to 0.5 cm. Seeds of Echinochloa crus-galli var. crus-galli, Leptochloa chinensis, Cyperus difformis, and Oryza sativa were sowed and the pot was placed in the greenhouse of 25° C. to 30° C. to grow the plants. After the plants were grown for 14 days, the emulsion agent containing the compound of the present invention prepared in accordance with Formulation Example 2 was diluted with water so as to be a predetermined herbicide amount and the diluted compound was uniformly applied to a stem and leaf part with a small-size spray. Three weeks after the herbicide application, effects on each plant were investigated in accordance with the criteria of Test Example 1. A: Echinochloa oryzicola Vasing., B: Scirpus juncoides, C: Monochoria vaginalis, D: Leptochloa chinensis, E: Cyperus difformis, F: Digitaria ciliaris, G: Setaria viridis, H: Echinochloa crus-galli var. crus-galli, I: Avena fatua, J: Alopecurus myosuroides, K: Lolium multiflorum Lam., L: Apera spica-venti., M: Abutilon theophrasti, N: Amaranthus retroflexus, O: Chenopodium album, P: Stellaria media, Q: Galium spurium, R: Veronica persica, a: transplanted Oryza sativa, b: directly sowed Oryza sativa, c: Zea mays, d: Glycine max, e: Triticum aestivum, f: Beta vulgaris ssp. vulgaris, and g: Brassica campestris L. The application herbicide amount (g/ha) means an amount that a concentration is adjusted so that, when an application amount is converted into per hectare (1 ha), the herbicide is applied by the number of grams (g) of the described value.

Cyperus difformis = experiment: as above; conditions: Nineteenth Table; application to foliage; application herbicide amount 320 g/ha
Description: as §2

[3] = tested on: Echinochloa crus-galli var. crus-galli; experiment: as above; conditions: Nineteenth Table; application to foliage; application herbicide amount 320 g/ha
Description: as §2

[4] = tested on: directly sowed Oryza sativa; experiment: Test Example 3: effect on crop by application to foliage (Wagner pot, water depth 0.1-0.5 cm); conditions: Nineteenth Table; application to foliage; application herbicide amount 320 g/ha
Description: as §2

Abutilon theophrasti = experiment: Test Example 4: herbicidal effect by application to foliage (diluvial soil, plastic box); conditions: Application herbicide amount 320 g/ha
Description: as §1

Veronica persica = experiment: as above; conditions: Application herbicide amount 320 g/ha
Description: as §1

Apera spica-venti. = experiment: as above; conditions: Application herbicide amount 320 g/ha
Description: as §1

Chenopodium album = experiment: as above; conditions: Application herbicide amount 320 g/ha
Description: as §1

Alopecurus myosuroides = experiment: as above; conditions: Application herbicide amount 320 g/ha
Description: as §1

Lolium multiflorum Lam. = experiment: as above; conditions: Application herbicide amount 320 g/ha
Description: as §1

Digitaria ciliaris = experiment: as above; conditions: Application herbicide amount 320 g/ha
Description: as §1

[5] = tested on: Echinochloa crus-galli var. crus-galli; experiment: as above; conditions: Application herbicide amount 320 g/ha
Description: as §1

Galium spurium = experiment: as above; conditions: Application herbicide amount 320 g/ha
Description: as §1

Avena fatua = experiment: as above; conditions: Application herbicide amount 320 g/ha
Description: as §1

Setaria viridis = experiment: as above; conditions: Application herbicide amount 320 g/ha
Description: as §1

Structure (SMILES)	b (Zea mays)	g (Brassica campestris L.)	f [1]	d [2]	c (Glycine max)	e (Triticum aestivum)	D (herbicidal effect grade) (Leptochloa chinensis)	E (herbicidal effect grade) (Cyperus difformis)	H (herbicidal effect grade) [3]	b (effect on crop grade) [4]	M (Abutilon theophrasti)	R (Veronica persica)	L (Apera spica-venti.)	O (Chenopodium album)	J (Alopecurus myosuroides)	K (Lolium multiflorum Lam.)	F (Digitaria ciliaris)	H [5]	I (Avena fatua)	G (Setaria viridis)	other results
CON=Cc1nnc2c(C(=O)Nc3nnc(C)o3)ccc(C(F)(F)F)n12 [1-072]	0 (Herbicidal ratio of 5% or less (almost no effect))	0 (Herbicidal ratio of 5% or less (almost no effect))	0 (Herbicidal ratio of 5% or less (almost no effect))	0 (Herbicidal ratio of 5% or less (almost no effect))	0 (Herbicidal ratio of 5% or less (almost no effect))	0 (Herbicidal ratio of 5% or less (almost no effect))	1 (Herbicidal ratio of 5% or more and less than 20%)	0 (Herbicidal ratio of 5% or less (almost no effect))	2 (Herbicidal ratio of 20% or more and less than 40%)	0 (Herbicidal ratio of 5% or less (almost no effect))	1 (Herbicidal ratio of 5% or more and less than 20%)	1 (Herbicidal ratio of 5% or more and less than 20%)	0 (Herbicidal ratio of 5% or less (almost no effect))	4 (Herbicidal ratio of 70% or more and less than 90%)	0 (Herbicidal ratio of 5% or less (almost no effect))	0 (Herbicidal ratio of 5% or less (almost no effect))	0 (Herbicidal ratio of 5% or less (almost no effect))	3 (Herbicidal ratio of 40% or more and less than 70%)	0 (Herbicidal ratio of 5% or less (almost no effect))	0 (Herbicidal ratio of 5% or less (almost no effect))	Q (Galium spurium): 0 (Herbicidal ratio of 5% or less (almost no effect))
Cc1nnc(NC(=O)c2ccc(-c3cc(F)cc(F)c3)n3c(C(C)C)nnc23)o1 [1-088]	0 (Herbicidal ratio of 5% or less (almost no effect))	0 (Herbicidal ratio of 5% or less (almost no effect))	0 (Herbicidal ratio of 5% or less (almost no effect))	0 (Herbicidal ratio of 5% or less (almost no effect))	0 (Herbicidal ratio of 5% or less (almost no effect))	0 (Herbicidal ratio of 5% or less (almost no effect))	–	–	–	–	0 (Herbicidal ratio of 5% or less (almost no effect))	0 (Herbicidal ratio of 5% or less (almost no effect))	0 (Herbicidal ratio of 5% or less (almost no effect))	2 (Herbicidal ratio of 20% or more and less than 40%)	0 (Herbicidal ratio of 5% or less (almost no effect))	0 (Herbicidal ratio of 5% or less (almost no effect))	0 (Herbicidal ratio of 5% or less (almost no effect))	0 (Herbicidal ratio of 5% or less (almost no effect))	0 (Herbicidal ratio of 5% or less (almost no effect))	0 (Herbicidal ratio of 5% or less (almost no effect))	Q (Galium spurium): 0 (Herbicidal ratio of 5% or less (almost no effect))
Cc1nnc(NC(=O)c2ccc(C(F)(F)F)n3c(C(C)C)nnc23)n1C [5-001]	–	–	–	–	–	–	0 (Herbicidal ratio of 5% or less (almost no effect))	0 (Herbicidal ratio of 5% or less (almost no effect))	1 (Herbicidal ratio of 5% or more and less than 20%)	0 (Herbicidal ratio of 5% or less (almost no effect))	–	–	–	–	–	–	–	–	–	–	–
CC(C)c1nnc2c(C(=O)Nc3nnc(-c4ccccn4)o3)ccc(C(F)(F)F)n12 [1-101]	–	–	–	–	–	–	0 (Herbicidal ratio of 5% or less (almost no effect))	0 (Herbicidal ratio of 5% or less (almost no effect))	1 (Herbicidal ratio of 5% or more and less than 20%)	0 (Herbicidal ratio of 5% or less (almost no effect))	–	–	–	–	–	–	–	–	–	–	–
Cc1nnc(NC(=O)c2ccc(-c3ccccc3)n3c(C(C)C)nnc23)o1 [1-081]	0 (Herbicidal ratio of 5% or less (almost no effect))	0 (Herbicidal ratio of 5% or less (almost no effect))	1 (Herbicidal ratio of 5% or more and less than 20%)	0 (Herbicidal ratio of 5% or less (almost no effect))	0 (Herbicidal ratio of 5% or less (almost no effect))	0 (Herbicidal ratio of 5% or less (almost no effect))	0 (Herbicidal ratio of 5% or less (almost no effect))	0 (Herbicidal ratio of 5% or less (almost no effect))	2 (Herbicidal ratio of 20% or more and less than 40%)	0 (Herbicidal ratio of 5% or less (almost no effect))	0 (Herbicidal ratio of 5% or less (almost no effect))	0 (Herbicidal ratio of 5% or less (almost no effect))	0 (Herbicidal ratio of 5% or less (almost no effect))	4 (Herbicidal ratio of 70% or more and less than 90%)	0 (Herbicidal ratio of 5% or less (almost no effect))	0 (Herbicidal ratio of 5% or less (almost no effect))	0 (Herbicidal ratio of 5% or less (almost no effect))	0 (Herbicidal ratio of 5% or less (almost no effect))	0 (Herbicidal ratio of 5% or less (almost no effect))	0 (Herbicidal ratio of 5% or less (almost no effect))	–
